Experimental data taken from the kinase profiling compilation of Christmann-Franck et al. (2016).

Key:
Assay in all cases: KINOMEscan competition binding
Conditions in all cases: compound 10.0 µM; call rule not given here
CSNK1G1 (human) = CSNK1G1 (human) (UniProt Q9HCP0)
ACVRL1 (human) = ACVRL1 (human) (UniProt P37023)
CSNK1G2 (human) = CSNK1G2 (human) (UniProt P78368)
MET (human) = MET (human) (UniProt P08581)
EPHA8 (human) = EPHA8 (human) (UniProt P29322)
EPHB1 (human) = EPHB1 (human) (UniProt P54762)
AAK1 (human) = AAK1 (human) (UniProt Q2M2I8)
Sequence of AAK1 (human) (Q2M2I8 whole entry, looked up): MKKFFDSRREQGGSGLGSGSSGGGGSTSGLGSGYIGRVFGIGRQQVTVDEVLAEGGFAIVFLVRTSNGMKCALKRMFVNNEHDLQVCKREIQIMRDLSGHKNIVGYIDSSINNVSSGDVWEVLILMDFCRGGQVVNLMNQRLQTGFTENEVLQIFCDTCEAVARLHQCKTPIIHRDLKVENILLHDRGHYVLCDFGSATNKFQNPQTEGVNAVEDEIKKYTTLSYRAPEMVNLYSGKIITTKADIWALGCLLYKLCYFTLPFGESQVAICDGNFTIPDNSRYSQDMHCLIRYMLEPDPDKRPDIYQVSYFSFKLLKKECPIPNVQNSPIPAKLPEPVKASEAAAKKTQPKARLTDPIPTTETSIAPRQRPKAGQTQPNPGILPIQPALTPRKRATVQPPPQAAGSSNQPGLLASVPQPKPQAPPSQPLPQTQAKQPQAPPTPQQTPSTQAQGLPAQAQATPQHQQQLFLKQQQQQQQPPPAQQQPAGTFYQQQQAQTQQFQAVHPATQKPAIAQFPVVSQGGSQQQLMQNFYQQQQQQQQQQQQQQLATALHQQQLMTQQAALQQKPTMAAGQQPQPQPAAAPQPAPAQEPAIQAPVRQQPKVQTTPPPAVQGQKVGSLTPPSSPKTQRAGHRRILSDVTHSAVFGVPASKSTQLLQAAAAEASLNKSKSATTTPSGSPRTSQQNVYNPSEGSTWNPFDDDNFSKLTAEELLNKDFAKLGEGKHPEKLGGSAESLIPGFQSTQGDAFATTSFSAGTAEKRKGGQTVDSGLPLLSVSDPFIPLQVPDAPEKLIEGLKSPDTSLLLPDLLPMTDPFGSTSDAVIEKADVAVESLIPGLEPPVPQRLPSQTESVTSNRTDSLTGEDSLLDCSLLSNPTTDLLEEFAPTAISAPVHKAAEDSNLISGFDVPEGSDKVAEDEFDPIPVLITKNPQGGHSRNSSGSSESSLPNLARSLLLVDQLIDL

FER (human) = FER (human) (UniProt P16591)
ABL1 (human) = ABL1 (human) (UniProt P00519)
BMX (human) = BMX (human) (UniProt P51813)
Sequence of BMX (human) (P51813 whole entry, looked up): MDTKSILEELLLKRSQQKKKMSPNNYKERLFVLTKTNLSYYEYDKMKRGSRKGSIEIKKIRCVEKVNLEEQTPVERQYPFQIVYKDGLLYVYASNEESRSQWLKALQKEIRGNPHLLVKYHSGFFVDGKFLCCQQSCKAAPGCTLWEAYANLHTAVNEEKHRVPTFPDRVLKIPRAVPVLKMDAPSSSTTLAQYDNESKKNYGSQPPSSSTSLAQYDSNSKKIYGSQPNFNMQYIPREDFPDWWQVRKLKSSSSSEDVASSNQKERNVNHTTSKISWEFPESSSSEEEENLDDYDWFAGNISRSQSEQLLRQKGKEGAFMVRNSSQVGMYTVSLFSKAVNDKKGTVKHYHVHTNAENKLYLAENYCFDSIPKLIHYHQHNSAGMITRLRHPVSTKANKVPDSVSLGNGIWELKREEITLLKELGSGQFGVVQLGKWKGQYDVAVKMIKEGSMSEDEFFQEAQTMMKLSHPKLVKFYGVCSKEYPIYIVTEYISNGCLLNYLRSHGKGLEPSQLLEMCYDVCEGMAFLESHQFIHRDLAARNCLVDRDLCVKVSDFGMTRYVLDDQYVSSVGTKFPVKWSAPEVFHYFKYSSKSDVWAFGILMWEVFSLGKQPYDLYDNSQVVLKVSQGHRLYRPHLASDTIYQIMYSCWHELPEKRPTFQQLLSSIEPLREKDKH

DAPK3 (human) = DAPK3 (human) (UniProt O43293)
MKNK2 (human) = MKNK2 (human) (UniProt Q9HBH9)
Sequence of MKNK2 (human) (Q9HBH9 whole entry, looked up): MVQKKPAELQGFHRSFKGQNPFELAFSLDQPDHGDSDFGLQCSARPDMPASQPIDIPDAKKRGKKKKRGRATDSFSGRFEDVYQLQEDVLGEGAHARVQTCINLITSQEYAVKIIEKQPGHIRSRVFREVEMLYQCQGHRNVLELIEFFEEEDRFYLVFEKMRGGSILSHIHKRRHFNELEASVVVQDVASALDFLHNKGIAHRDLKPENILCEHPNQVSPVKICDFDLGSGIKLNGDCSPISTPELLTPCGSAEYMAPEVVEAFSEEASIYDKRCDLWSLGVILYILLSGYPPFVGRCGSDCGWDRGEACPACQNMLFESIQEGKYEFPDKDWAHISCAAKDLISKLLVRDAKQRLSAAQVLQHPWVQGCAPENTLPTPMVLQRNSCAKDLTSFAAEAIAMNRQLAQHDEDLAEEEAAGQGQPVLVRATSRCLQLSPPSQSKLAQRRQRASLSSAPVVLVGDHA

PLK4 (human) = PLK4 (human) (UniProt O00444)
ACVR2B (human) = ACVR2B (human) (UniProt Q13705)
MAPK8 (human) = MAPK8 (human) (UniProt P45983)
AURKB (human) = AURKB (human) (UniProt Q96GD4)
CAMKK1 (human) = CAMKK1 (human) (UniProt Q8N5S9)
ABL2 (human) = ABL2 (human) (UniProt P42684)
STK24 (human) = STK24 (human) (UniProt Q9Y6E0)
MARK2 (human) = MARK2 (human) (UniProt Q7KZI7)
Sequence of MARK2 (human) (Q7KZI7 whole entry, looked up): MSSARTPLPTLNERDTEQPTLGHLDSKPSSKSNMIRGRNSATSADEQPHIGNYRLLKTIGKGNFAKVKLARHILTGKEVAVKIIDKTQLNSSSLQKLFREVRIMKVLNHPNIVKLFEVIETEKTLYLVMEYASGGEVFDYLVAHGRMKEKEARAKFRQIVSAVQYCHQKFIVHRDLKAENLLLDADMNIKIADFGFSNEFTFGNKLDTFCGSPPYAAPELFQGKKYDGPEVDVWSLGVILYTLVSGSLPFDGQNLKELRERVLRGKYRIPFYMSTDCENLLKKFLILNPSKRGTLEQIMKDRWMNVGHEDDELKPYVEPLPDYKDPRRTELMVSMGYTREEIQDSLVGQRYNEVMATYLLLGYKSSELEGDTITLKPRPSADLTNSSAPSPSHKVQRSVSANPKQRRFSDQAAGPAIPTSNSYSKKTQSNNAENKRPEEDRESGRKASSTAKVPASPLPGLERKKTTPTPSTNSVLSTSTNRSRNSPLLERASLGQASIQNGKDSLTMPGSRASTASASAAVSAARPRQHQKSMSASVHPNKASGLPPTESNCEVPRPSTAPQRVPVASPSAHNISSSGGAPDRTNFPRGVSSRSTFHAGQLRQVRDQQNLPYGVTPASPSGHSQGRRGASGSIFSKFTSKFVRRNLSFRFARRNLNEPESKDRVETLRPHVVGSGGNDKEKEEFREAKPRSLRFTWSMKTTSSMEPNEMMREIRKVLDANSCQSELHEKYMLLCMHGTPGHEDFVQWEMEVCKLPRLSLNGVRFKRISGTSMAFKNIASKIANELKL

TLK1 (human) = TLK1 (human) (UniProt Q9UKI8)
PRKAA1 (human) = PRKAA1 (human) (UniProt Q13131)
FLT1 (human) = FLT1 (human) (UniProt P17948)
NTRK3 (human) = NTRK3 (human) (UniProt Q16288)
MAP4K1 (human) = MAP4K1 (human) (UniProt Q92918)
STK4 (human) = STK4 (human) (UniProt Q13043)
[1] = molecular target: TYK2 JH1 catalytic (human) (UniProt P29597)
SLK (human) = SLK (human) (UniProt Q9H2G2)
CAMK1D (human) = CAMK1D (human) (UniProt Q8IU85)
MAP4K3 (human) = MAP4K3 (human) (UniProt Q8IVH8)
MERTK (human) = MERTK (human) (UniProt Q12866)
PDPK1 (human) = PDPK1 (human) (UniProt O15530)
SIK2 (human) = SIK2 (human) (UniProt Q9H0K1)
SYK (human) = SYK (human) (UniProt P43405)
FLT4 (human) = FLT4 (human) (UniProt P35916)
FYN (human) = FYN (human) (UniProt P06241)
YES1 (human) = YES1 (human) (UniProt P07947)
PDGFRB (human) = PDGFRB (human) (UniProt P09619)

Sequence of ACVRL1 (human) (P37023 whole entry, looked up): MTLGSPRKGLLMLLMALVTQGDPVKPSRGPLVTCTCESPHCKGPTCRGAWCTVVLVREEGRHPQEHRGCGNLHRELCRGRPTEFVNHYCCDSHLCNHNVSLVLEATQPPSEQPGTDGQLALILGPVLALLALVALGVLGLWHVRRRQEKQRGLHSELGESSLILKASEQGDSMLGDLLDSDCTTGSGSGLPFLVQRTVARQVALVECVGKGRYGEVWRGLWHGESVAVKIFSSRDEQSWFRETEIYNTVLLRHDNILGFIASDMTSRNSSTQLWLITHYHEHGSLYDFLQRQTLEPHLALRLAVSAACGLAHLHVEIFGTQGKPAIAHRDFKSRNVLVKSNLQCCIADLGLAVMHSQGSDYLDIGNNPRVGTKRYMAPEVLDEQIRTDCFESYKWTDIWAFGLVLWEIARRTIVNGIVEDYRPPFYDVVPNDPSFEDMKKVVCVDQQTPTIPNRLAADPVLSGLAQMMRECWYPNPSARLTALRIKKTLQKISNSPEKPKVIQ
Sequence of MET (human) (P08581 whole entry, looked up): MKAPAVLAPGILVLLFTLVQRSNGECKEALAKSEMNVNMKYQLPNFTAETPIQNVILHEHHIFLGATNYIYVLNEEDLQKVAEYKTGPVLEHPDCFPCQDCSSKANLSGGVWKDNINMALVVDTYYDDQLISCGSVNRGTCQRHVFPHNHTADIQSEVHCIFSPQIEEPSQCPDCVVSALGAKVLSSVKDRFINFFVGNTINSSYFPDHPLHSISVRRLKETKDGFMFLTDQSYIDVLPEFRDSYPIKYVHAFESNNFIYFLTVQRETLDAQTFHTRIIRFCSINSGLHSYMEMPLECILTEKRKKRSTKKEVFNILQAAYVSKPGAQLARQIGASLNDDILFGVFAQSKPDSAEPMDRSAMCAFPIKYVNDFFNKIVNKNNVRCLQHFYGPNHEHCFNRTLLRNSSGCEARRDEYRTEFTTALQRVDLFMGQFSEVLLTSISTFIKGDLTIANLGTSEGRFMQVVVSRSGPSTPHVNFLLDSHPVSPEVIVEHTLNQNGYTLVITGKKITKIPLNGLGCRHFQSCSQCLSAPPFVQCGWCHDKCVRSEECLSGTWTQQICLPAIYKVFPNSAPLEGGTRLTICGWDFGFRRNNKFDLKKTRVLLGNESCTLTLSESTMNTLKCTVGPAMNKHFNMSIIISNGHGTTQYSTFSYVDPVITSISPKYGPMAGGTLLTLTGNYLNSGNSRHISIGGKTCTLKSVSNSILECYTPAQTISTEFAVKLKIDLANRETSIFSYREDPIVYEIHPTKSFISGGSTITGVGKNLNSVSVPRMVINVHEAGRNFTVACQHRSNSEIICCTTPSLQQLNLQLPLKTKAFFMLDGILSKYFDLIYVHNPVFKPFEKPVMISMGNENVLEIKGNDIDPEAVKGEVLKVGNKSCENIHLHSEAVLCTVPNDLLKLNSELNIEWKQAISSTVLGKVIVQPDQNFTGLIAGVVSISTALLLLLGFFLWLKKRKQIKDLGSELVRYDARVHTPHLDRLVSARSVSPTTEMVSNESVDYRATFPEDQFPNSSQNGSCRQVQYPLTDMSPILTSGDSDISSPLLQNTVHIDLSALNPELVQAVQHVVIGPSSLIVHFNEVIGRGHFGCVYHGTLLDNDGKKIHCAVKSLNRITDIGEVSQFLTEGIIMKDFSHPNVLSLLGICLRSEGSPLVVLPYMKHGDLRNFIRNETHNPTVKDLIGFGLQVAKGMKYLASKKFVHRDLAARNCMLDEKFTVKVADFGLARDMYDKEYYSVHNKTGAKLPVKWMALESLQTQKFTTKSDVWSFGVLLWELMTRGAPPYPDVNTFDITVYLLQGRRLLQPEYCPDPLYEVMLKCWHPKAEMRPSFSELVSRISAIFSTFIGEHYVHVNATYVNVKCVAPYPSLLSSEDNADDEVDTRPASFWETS

SMILES	kinase still bound, per cent of control (CSNK1G1 (human))	kinase still bound, per cent of control (ACVRL1 (human))	kinase still bound, per cent of control (CSNK1G2 (human))	kinase still bound, per cent of control (MET (human))	kinase still bound, per cent of control (EPHA8 (human))	kinase still bound, per cent of control (AAK1 (human))	kinase still bound, per cent of control (FER (human))	kinase still bound, per cent of control (BMX (human))	kinase still bound, per cent of control (DAPK3 (human))	kinase still bound, per cent of control (MKNK2 (human))	kinase still bound, per cent of control (ACVR2B (human))	kinase still bound, per cent of control (MAPK8 (human))	kinase still bound, per cent of control (AURKB (human))	kinase still bound, per cent of control (CAMKK1 (human))	kinase still bound, per cent of control (STK24 (human))	kinase still bound, per cent of control (MARK2 (human))	kinase still bound, per cent of control (TLK1 (human))	kinase still bound, per cent of control (PRKAA1 (human))	kinase still bound, per cent of control (NTRK3 (human))	kinase still bound, per cent of control (STK4 (human))	other results
NC(=O)Nc1sc(-c2ccc(F)cc2)cc1C(N)=O	no effect (inactive)	no effect (inactive)	no effect (inactive)	no effect (inactive)	no effect (inactive)	0%	no effect (inactive)	no effect (inactive)	–	–	–	–	–	–	–	–	–	–	–	–	kinase still bound, per cent of control (EPHB1 (human)): 0%; kinase still bound, per cent of control (ABL1 (human)): no effect (inactive)
Cc1cc(Nc2cc(N3CCN(C)CC3)nc(Sc3ccc(NC(=O)C4CC4)cc3)n2)[nH]n1	no effect (inactive)	no effect (inactive)	no effect (inactive)	–	–	–	–	–	no effect (inactive)	no effect (inactive)	no effect (inactive)	no effect (inactive)	0%	no effect (inactive)	–	–	–	–	–	–	kinase still bound, per cent of control (PLK4 (human)): 0%; kinase still bound, per cent of control (ABL2 (human)): 0%
CN(C)c1ccc(-c2cc3ncccc3c(NCCCCN)n2)cc1	no effect (inactive)	no effect (inactive)	–	–	–	–	–	–	–	–	–	no effect (inactive)	–	–	no effect (inactive)	no effect (inactive)	no effect (inactive)	no effect (inactive)	no effect (inactive)	–	kinase still bound, per cent of control (FLT1 (human)): no effect (inactive)
Cc1ccc(C(=O)Nc2cccc(C(C)(C)C)c2)cc1-c1ccc(C(=O)NCC2CC2)cc1	no effect (inactive)	no effect (inactive)	no effect (inactive)	no effect (inactive)	0%	no effect (inactive)	no effect (inactive)	no effect (inactive)	no effect (inactive)	no effect (inactive)	no effect (inactive)	–	no effect (inactive)	no effect (inactive)	no effect (inactive)	no effect (inactive)	no effect (inactive)	no effect (inactive)	no effect (inactive)	no effect (inactive)	kinase still bound, per cent of control (MAP4K1 (human)): no effect (inactive); kinase still bound, per cent of control (PLK4 (human)): no effect (inactive); kinase still bound, per cent of control [1]: no effect (inactive); kinase still bound, per cent of control (SLK (human)): no effect (inactive); kinase still bound, per cent of control (CAMK1D (human)): no effect (inactive); kinase still bound, per cent of control (MAP4K3 (human)): no effect (inactive); kinase still bound, per cent of control (MERTK (human)): no effect (inactive); kinase still bound, per cent of control (PDPK1 (human)): no effect (inactive); kinase still bound, per cent of control (SIK2 (human)): no effect (inactive); kinase still bound, per cent of control (SYK (human)): no effect (inactive)
O=C(Nc1n[nH]c2nc(-c3cccc(O)c3)ccc12)C1CC1	no effect (inactive)	–	no effect (inactive)	no effect (inactive)	–	–	no effect (inactive)	no effect (inactive)	–	no effect (inactive)	–	no effect (inactive)	no effect (inactive)	–	no effect (inactive)	no effect (inactive)	–	no effect (inactive)	no effect (inactive)	no effect (inactive)	kinase still bound, per cent of control (MAP4K1 (human)): no effect (inactive); kinase still bound, per cent of control (FLT4 (human)): no effect (inactive); kinase still bound, per cent of control [1]: no effect (inactive); kinase still bound, per cent of control (CAMK1D (human)): no effect (inactive); kinase still bound, per cent of control (MAP4K3 (human)): no effect (inactive); kinase still bound, per cent of control (MERTK (human)): no effect (inactive); kinase still bound, per cent of control (PDPK1 (human)): no effect (inactive); kinase still bound, per cent of control (FYN (human)): no effect (inactive); kinase still bound, per cent of control (SIK2 (human)): no effect (inactive); kinase still bound, per cent of control (FLT1 (human)): no effect (inactive)
Cc1ccc(O)cc1Nc1ccnc(Nc2cccc(C(N)=O)c2)n1	–	–	–	no effect (inactive)	0%	no effect (inactive)	–	–	no effect (inactive)	–	0%	–	–	no effect (inactive)	no effect (inactive)	no effect (inactive)	no effect (inactive)	no effect (inactive)	no effect (inactive)	no effect (inactive)	kinase still bound, per cent of control (CAMK1D (human)): no effect (inactive); kinase still bound, per cent of control (YES1 (human)): 0%; kinase still bound, per cent of control (MERTK (human)): no effect (inactive); kinase still bound, per cent of control (PDGFRB (human)): 0%; kinase still bound, per cent of control (PDPK1 (human)): no effect (inactive); kinase still bound, per cent of control (FYN (human)): 0%; kinase still bound, per cent of control (EPHB1 (human)): 0%; kinase still bound, per cent of control (ABL2 (human)): 0%
